Measurements from US8269000B2, “Substituted pyrimidine and triazine compounds” (Gruenenthal GmbH, priority 2008, dated 2012).

Each molecule was assayed against T1, rat B1R (Rattus norvegicus, UniProt P97583) (assay: FLIPR Ca2+ functional study on bradykinin receptor 1 (rB1R CHO K1 cells)). Conditions: % inhibition rat B1R at 10 μM.
T1 construct: expressed in transfected cells; host or cells: CHO K1 cells
T1 sequence (P97583 1-337): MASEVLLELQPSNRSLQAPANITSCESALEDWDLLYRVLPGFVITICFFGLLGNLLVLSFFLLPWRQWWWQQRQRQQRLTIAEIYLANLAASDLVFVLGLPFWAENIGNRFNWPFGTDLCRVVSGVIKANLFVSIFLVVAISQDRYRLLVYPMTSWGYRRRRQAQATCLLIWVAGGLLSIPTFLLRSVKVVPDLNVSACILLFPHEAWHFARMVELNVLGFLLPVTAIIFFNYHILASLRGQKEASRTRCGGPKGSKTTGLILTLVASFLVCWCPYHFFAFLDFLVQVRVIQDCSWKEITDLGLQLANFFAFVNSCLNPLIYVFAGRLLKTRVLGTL
Format: cell-based
Outline: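 Antagonism was calculated as % of maximal inhibition of the Ca2+ rise triggered by agonist at EC80 (Lys-Des-Arg9-bradykinin for hB1R, Des-Arg9-bradykinin for rB1R), added 10-20 min after test compound (10 μM or serial dilutions for IC50) to Fluo-4-loaded transfected CHO K1 cells on FLIPR. Duplicates or triplicates, ≥2 independent runs.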

SMILES	% inh. (rat B1R) 10 μM [%]
COc1cc(C)c(S(=O)(=O)N2c3ccccc3C[C@H]2COc2ccnc(N3CCN(CC4CCN(C)CC4)CC3)n2)c(C)c1 [H_CC-020, (2S)-1-(4-methoxy-2,6-dimethylphenyl)sulfonyl-2-[[2-[4-[(1-methyl-4-pipendinyl)methyl]-1-piperazinyl]-4-pyrimidinyl]oxymethyl]indoline]	93

Same assay, conditions: % inhibition rat B1R at 10 μM, 10 µM

SMILES	% inh. (rat B1R) 10 μM [%]
COc1cc(C)c(S(=O)(=O)N(C)CCOc2nccc(N(C)CCN3CCC(c4ccccc4)(N(C)C)CC3)n2)c(C)c1 [G_CC-098, N-[2-[4-[2-(4-dimethylamino-4-phenyl-piperidin-1-yl)-ethyl-methyl-amino]-pyrimidin-2-yl]oxy-ethyl]-4-methoxy-N,2,6-trimethyl-benzenesulfonic acid amide]	79

Same assay, conditions: CHO-K1, % inhibition rat B1R at 10 μM, read-out: % inh. (rat B1R) 10 μM

SMILES	inhibition at 10 µM [%]
COc1cc(C)c(S(=O)(=O)N2c3ccccc3C[C@H]2COc2ccnc(N3CCC(CCN4CCCCC4)CC3)n2)c(C)c1 [H_CC-028, (2S)-1-(4-methoxy-2,6-dimethylphenyl)sulfonyl-2-[[2-[4-[2-(1-piperidyl)ethyl]-1-piperidinyl]-4-pyrimidinyl]oxymethyl]indoline]	83
COc1cc(C)c(S(=O)(=O)N2CCCCC2COc2ccnc(N3CCN(C)CC3)n2)c(C)c1 (centres unmarked) [H_CC-003, 4-[[1-(4-methoxy-2,6-dimethylphenyl)sulfonyl-2-piperidinyl]methoxy]-2-(4-methyl-1-piperazinyl)pyrimidine]	58
CCCCC1(N(C)C)CCN(CCN(C)c2ccnc(OC[C@@H]3Cc4ccccc4N3S(=O)(=O)c3c(C)cc(OC)cc3C)n2)CC1 [G_CC-097, 2-(4-butyl-4-dimethylamino-piperidin-1-yl)-ethyl-[2-[[(2S)-1-[(4-methoxy-2,6-dimethyl-phenyl)sulfonyl]-2,3-dihydro-1H-indol-2-yl]-methoxy]-pyrimidin-4-yl]-methyl-amine]	101
COc1cc(C)c(S(=O)(=O)N2CCCCC2COc2nccc(N(C)CCN3CCC(c4ccccc4)(N4CCCC4)CC3)n2)c(C)c1 (centres unmarked) [G_CC-073, [2-[[1-[(4-methoxy-2,6-dimethyl-phenyl)sulfonyl]-piperidin-2-yl]-methoxy]-pyrimidin-4-yl]-methyl-[2-(4-phenyl-4-pyrrolidin-1-yl-piperidin-1-yl)-ethyl]-amine]	101
COc1cc(C)c(S(=O)(=O)N2CCC[C@H]2COc2ccnc(N3CCC(O)(c4ccccn4)CC3)n2)c(C)c1 [H_CC-047, 1-[4-[[(2S)-1-[(4-methoxy-2,6-dimethyl-phenyl)sulfonyl]-pyrrolidin-2-yl]-methoxy]-pyrimidin-2-yl]-4-pyridin-2-yl-piperidin-4-ol]	85
COc1cc(C)c(S(=O)(=O)N2c3ccccc3C[C@H]2COc2nccc(N3CCC(c4cccs4)(N(C)C)CC3)n2)c(C)c1 [G_CC-125, [1-[2-[[(2S)-1-[(4-methoxy-2,6-dimethyl-phenyl)sulfonyl]-2,3-dihydro-1H-indol-2-yl]-methoxy]-pyrimidin-4-yl]-4-thiophen-2-yl-piperidin-4-yl]-dimethyl-amine]	58

Now from value to molecule:

inhibition at 10 µM [%]	SMILES
103	COc1cc(C)c(S(=O)(=O)N2CCCCC2COc2nccc(N3CCC(CCCN4CCCC4)(c4cccnc4)CC3)n2)c(C)c1 (centres unmarked) [G_CC-080, 2-[[1-[(4-methoxy-2,6-dimethyl-phenyl)sulfonyl]-piperidin-2-yl]-methoxy]-4-[4-pyridin-3-yl-4-(3-pyrrolidin-1-yl-propyl)-piperidin-1-yl]-pyrimidine]
68	COc1cc(C)c(S(=O)(=O)N2CCC[C@H]2COc2nccc(N3CCC4(CC3)OCc3ccccc34)n2)c(C)c1 [G_CC-033, 1′-[2-[[(2S)-1-(4-methoxy-2,6-dimethylphenyl)sulfonyl-2-pyrrolidinyl]methoxy]-4-pyrimidinyl]spiro[1H-isobenzofuran-3,4′-piperidine]]
94	COc1cc(C)c(S(=O)(=O)N2CCCCC2COc2nccc(N3CCC4(CC3)CCN(c3ccc(F)cc3)C4=O)n2)c(C)c1 (centres unmarked) [G_CC-038, 3-(4-fluorophenyl)-8-[2-[[1-(4-methoxy-2,6-dimethylphenyl)sulfonyl-2-piperidinyl]methoxy]-4-pyrimidinyl]-3,8-diazaspiro[4.5]decan-4-one]
66	COc1cc(C)c(S(=O)(=O)N2CCC[C@H]2COc2ccnc(N3CCC(c4cccs4)(N(C)C)CC3)n2)c(C)c1 [H_CC-086, [1-[4-[[(2S)-1-[(4-methoxy-2,6-dimethyl-phenyl)sulfonyl]-pyrrolidin-2-yl]-methoxy]-pyrimidin-2-yl]-4-thiophen-2-yl-piperidin-4-yl]-dimethyl-amine]
77	COc1cc(C)c(S(=O)(=O)N2CC(Oc3nccc(N(C)CCCN4CCC(c5ccccc5)(N(C)C)CC4)n3)C2)c(C)c1 [G_CC-126, 3-(4-dimethylamino-4-phenyl-piperidin-1-yl)-propyl-[2-[1-[(4-methoxy-2,6-dimethyl-phenyl)sulfonyl]-azetidin-3-yl]oxy-pyrimidin-4-yl]-methyl-amine]
87	COc1cc(C)c(S(=O)(=O)N(C)CCOc2nccc(N3CCC4(CC3)CCN(c3ccc(F)cc3)C4=O)n2)c(C)c1 [G_CC-042, N-[2-[[4-[3-(4-fluorophenyl)-4-oxo-3,8-diazaspiro[4.5]decan-8-yl]-2-pyrimidinyl]oxy]ethyl]-4-methoxy-N,2,6-trimethylbenzenesulfonamide]
70	COc1cc(C)c(S(=O)(=O)N2CCCCC2COc2nccc(N3CCN(c4ccc(F)cc4)CC3)n2)c(C)c1 (centres unmarked) [G_CC-010, 4-[4-(4-fluorophenyl)-1-piperazinyl]-2-[[1-(4-methoxy-2,6-dimethylphenyl)sulfonyl-2-piperidinyl]methoxy]pyrimidine]
57	COc1cc(C)c(S(=O)(=O)N(C)CCOc2ccnc(N3CCCC3Cc3ccccn3)n2)c(C)c1 (centres unmarked) [H_CC-087, 4-methoxy-N,2,6-trimethyl-N-[2-[2-[2-(pyridin-2-yl-methyl)-pyrrolidin-1-yl]-pyrimidin-4-yl]oxy-ethyl]-benzenesulfonic acid amide]
82	COc1cc(C)c(S(=O)(=O)N(C)CCOc2ccnc(N3CCC(OCCN4CCCC4)(c4cccnc4)CC3)n2)c(C)c1 [H_CC-033, 4-methoxy-N,2,6-trimethyl-N-[2-[[2-[4-(3-pyridyl)-4-(2-1-pyrrolidinylethoxy)-1-piperidinyl]-4-pyrimidinyl]oxy]ethyl]benzenesulfonamide]
